In brackets after ≈: the same amount, converted by molar mass. Several values for one entry are separate records, joined by “and”; a condition that tells them apart may be missing. Equal entries are not always repeated. Where two headings read alike, the source gives them in different places.
How the values were obtained:
[1] = test system: Spodoptera frugiperda (fall armyworm) first instar larvae; assay: Spodoptera frugiperda killing assay (diet-surface overlay); format: in vivo; settings: first instar larvae
Description: Insect killing assays. Each compound was dissolved in dimethyl sulfoxide (DMSO). Killing dose curves were constructed for each compound by producing a two-fold dilution series of the compound (e.g., comprising approximately 16 serial dilutions of a stock for 3,3′-diindolylmethane and 3-((1H-Indol-2-yl)methyl)-1H-indole and comprising approximately 12 serial dilutions of a stock for 3,3′-diindolyl and 3,3′-(pyridin-4-ylmethylene)bis(1H-indole)). Dilutions were made in sterile NYSM broth as described above. The two-fold dilution series were tested in a killing bioassay as described below. Data were collected to construct a dose curve and determine the half-maximal lethal concentration (LC50) value.
Bioassays were performed using first instar larvae of the Lepidopteran species Spodoptera frugiperda (fall armyworm), with an N=16 for each concentration of compound tested. S. frugiperda larvae were purchased from Benzon Research, Inc. (Carlisle, PA). A diet-surface overlay format was used in which 1 milliliter of standard lepidopteran diet was placed in each well. One hundred microliters of sample were pipetted into each well and allowed to dry. A DMSO control was included with each set of samples.
During the development of embodiments of the technology described herein, experiments were conducted to test the killing of arundine against a panel of 11 insect species. […] Briefly, arundine was dissolved in dimethyl sulfoxide (DMSO). Killing dose curves were constructed by producing a two-fold dilution series of arundine. Dilutions were made in sterile NYSM as described. The two-fold dilution series were tested in a killing bioassay performed using first instar larvae of the species listed in Table 4, with an N=16 for each concentration of compound tested. A diet-surface overlay format was used in which 1 milliliter of standard lepidopteran diet was placed in each well. One hundred microliters of sample were pipetted into each well and allowed to dry. A DMSO control was included with each set of samples. […] Data were collected to construct a dose curve and determine the half-maximal lethal concentration (LC50) value.

[2] = test system: Cry1Fa resistant FAW; assay: Killing of Cry1Fa resistant fall armyworm; format: in vivo, Spodoptera frugiperda; settings: 1000 ppm BIM compound, 20 μl on diet surface; Cry1 FAW neonates; 5-7 days
Description: During the development of embodiments of the technology provided herein, experiments were conducted to test the killing potency of arundine-derived BIM compounds against strains of fall armyworm (FAW) that are resistant to Bacillus thuringiensis (Bt) insecticidal proteins (e.g., Cry1Fa and Vip3A). Susceptible FAW (Spodoptera frugiperda) was obtained from Benzon Research Inc, Lancaster, PA. Cry1Fa resistant FAW originating from Puerto Rico was reared in a facility by Genective (Weldon, IL). Vip3A resistant FAW originating from southern US was reared in a facility by Genective (Weldon, IL).
FAW eggs were incubated at approximately 26° C. at 50% relative humidity until eclosion (approximately 3 days) and the hatch was timed to within 12 hours of infesting the diet plates. BIM compounds were obtained from frozen stocks, thawed, suspended in 5% DMSO along with NYSM buffer to provide a solution of 2000 ppm BIM compound in a total volume of 1.0 ml, and stored at −20° C. For testing, a single tube of each BIM compound sample was thawed at 4° C. NYSM buffer was warmed to room temperature. A volume of 750 μl. NYSM buffer was added to 750 μl from each 1.0-ml volume to prepare samples of 1.5 ml BIM compound at 1000 ppm for testing. A total of three BIM preparations per BIM molecule were prepared and tested for killing potency. Compounds tested were BIM-1, 11, 25, 26, 28, 29, 30, 32, 34. A solution of 5% DMSO in NYSM buffer was used as a negative control.
A standard commercially available semi-solid lepidopteran diet was prepared following manufacturer's instructions (Frontier, multi-species diet). […] LB+Kanamycin (antibiotic) growth media is the negative control for bacterial cultures. Cry1Fa is a positive control prepared as E. coli cells expressing the full-length Cry1Fa protein resuspended in PBS buffer at half the volume of the original growth culture resulting in 2× concentration of cells. Vip3A is a positive control prepared as E. coli whole cell culture expressing Vip3A.
For each of 3 replicates, 200 μl of diet was prepared in wells of a 96-well plate and the diet plates were warmed to room temperature prior to dispensing samples. After 750 μl NYSM buffer was added to 750 μl from each 1.0-ml volume to prepare samples of 1.5 ml BIM compound at 1000 ppm for testing, BIM solutions were vortexed and 20 μl were dispensed onto the diet surface in each of 16 wells using a repeating pipettor. These steps were repeated for each sample and control for each insect population being tested. BIM compound and control solutions were allowed to absorb into the diet in a biosafety hood until the diet surface was visibly dry. Once dry, wells were sealed with a clear membrane. Two pin holes were poked through the membrane in each well to maintain appropriate humidity level and aeration. Each well was infested with a single neonate larva, and the wells were resealed with perforated membrane to prevent escape. The infested plates were incubated in environmental chambers at 26° C. and 50% relative humidity for 5-7 days. All bioassays were assessed visually to record larval mortality and growth inhibition.

[3] = test system: Aedes aegypti larvae; assay: Aedes aegypti killing assay (larval bioassay, two-fold dilution series); format: in vivo
Description: Insect killing assays. Each compound was dissolved in dimethyl sulfoxide (DMSO). Killing dose curves were constructed for each compound by producing a two-fold dilution series for each compound (e.g., comprising approximately 20 serial dilutions of a stock). Dilutions were made in sterile nutrient yeast extract salt medium (NYSM) broth. The NYSM contained 8 g/L nutrient broth powder, 0.5 g/L yeast extract, 1 mM MgCl2, 700 μM CaCl2, and 50 μM MnCl2 in water. The two-fold dilution series were tested in a killing bioassay as described below. Data were collected to construct a dose curve and determine the half-maximal lethal concentration (LC50) value.
Bioassays were performed using second or third instar Aedes aegypti larvae, with biological replication. Ae. aegpyti larvae were purchased from Benzon Research, Inc. (Carlisle, PA). Larvae were washed with sterile water before transfer to 24-well assay plates containing 1 mL of sterile water in each well. Each well contained 5 larvae. The final DMSO concentration in each assay well was 1%. Larval mortality was scored for each well at 24-hour timepoints after application. […] In Table 1, mean mortalities and standard deviations were calculated from at least three independent biological replicates. […] LC50 values were calculated using GraphPad Prism software.

[4] = Spodoptera frugiperda, calculated from killing dose curves FIG. 3D to 3NN, read-out: LD50 (the source's name)
[5] = calculated from killing dose curves FIG. 3D to 3NN, read-out: LD50 (the source's name)

Clc1ccc2c(C(c3cccc(Br)c3)c3c[nH]c4cc(Cl)ccc34)c[nH]c2c1 [BIM-35]
LC50 [1, 4]: 429 µM

Clc1ccc2c(C(c3ccc(Br)cc3)c3c[nH]c4cc(Cl)ccc34)c[nH]c2c1 [BIM-28]
lethality [2]: 100% | LC50 [1, 4]: 371 µM

Cn1cc(Cc2cn(C)c3ccccc23)c2ccccc21 [BIM-2]
LC50 [1, 4]: > 3000 µM

Clc1ccc(C(c2c[nH]c3ccccc23)c2c[nH]c3ccccc23)cc1 [3,3′-((4-chlorophenyl)methylene)bis(1H-indole)]
LC50 ([3]; Aedes aegypti, 72 h): 2.6 µg/mL and 7.3 µM

CCCC(c1c[nH]c2ccccc12)c1c[nH]c2ccccc12 [BIM-6]
LC50 [1, 4]: 3240 µM

Clc1cccc2[nH]cc(Cc3c[nH]c4cccc(Cl)c34)c12 [BIM-9]
LC50 [1, 4]: 1560 µM

Cc1cc2ccccc2[nH]1 [2-methindole]
LC50 (μg/mL) ([3]; second or third instar larvae, mortalities at 72 hours, mean ± standard deviation, at least three biological replicates): 6.8 ± 0.5 µg/mL (≈ 51.8 µM) | LC50 ([3]; second or third instar larvae, mortalities at 72 hours, mean ± standard deviation, at least three biological replicates, read-out: LC50): 52.2 ± 3.6 µM

c1ccc2c(C(CCCC(c3c[nH]c4ccccc34)c3c[nH]c4ccccc34)c3c[nH]c4ccccc34)c[nH]c2c1 [BIM-27]
LC50 [1, 4]: > 5000 µM

Ic1ccc2c(Cc3c[nH]c4cc(I)ccc34)c[nH]c2c1 [BIM-15]
LC50 [1, 4]: > 10000 µM

c1ccc(C(c2c[nH]c3ccccc23)c2c[nH]c3ccccc23)cc1 [BIM-7]
LC50 [1, 4]: 1680 µM

Cc1ccc2c(Cc3c[nH]c4cc(C)ccc34)c[nH]c2c1 [BIM-19]
LC50 [1, 4]: 1410 µM

Clc1cccc2c(Cc3c[nH]c4c(Cl)cccc34)c[nH]c12 [BIM-12]
LC50 [1, 4]: 1180 µM

Cc1ccc(C(c2c[nH]c3cc(Cl)ccc23)c2c[nH]c3cc(Cl)ccc23)cc1 [BIM-29]
lethality [2]: 100% | LC50 [1, 5]: 611 µM

Clc1ccc2c(C(c3ccc(Br)cc3)c3c[nH]c4ccccc34)c[nH]c2c1 (stereo not drawn) [BIM-37 R/S 3:1]
LC50 [1, 5]: 576 µM

c1ccc2c(C(c3ccncc3)c3c[nH]c4ccccc34)c[nH]c2c1 [3,3′-(pyridin-4-ylmethylene)bis(1H-indole)]
LC50 ([3]; Aedes aegypti, 72 h): 62.9 µg/mL and 194 µM | killing activity against Aedes aegypti ([3]; larvae): active | LC50 ([1]; Spodoptera frugiperda, N=16 per concentration, representative curve fit): 120 µg/mL and 370 µM | activity against S. frugiperda [1]: active

CCc1c[nH]c2ccccc12 [3-ethyl-1H-indole]
LC50 ([3]; Aedes aegypti, second or third instar larvae, mortalities at 72 hours, mean ± standard deviation, at least three biological replicates, read-out: LC50): 60 ± 24.2 µM | LC50 ([3]; Aedes aegypti, second or third instar larvae, mortalities at 72 hours, mean ± standard deviation, at least three biological replicates, read-out: LC50 (μg/mL)): 8.7 ± 3.5 µg/mL

CC(c1c[nH]c2ccccc12)c1c[nH]c2ccccc12 [3,3′-(ethane-1,1-diyl)bis(1H-indole)]
LC50 ([3]; Aedes aegypti, 72 h): 4.2 µg/mL and 16.1 µM

COc1ccc(C(c2c[nH]c3ccccc23)c2c[nH]c3ccccc23)cc1 [1,1-bis(3′-indolyl)-1-(p-methoxyphenyl)methane]
LC50 ([3]; in vivo): 66.6 ± 56.4 µM | LC50 (μg/mL) ([3]; in vivo): 23.4 ± 19.8 µg/mL (≈ 66.4 µM)

Brc1ccc2c(Cc3c[nH]c4cc(Br)ccc34)c[nH]c2c1 [BIM-14]
LC50 [1, 4]: 934 µM

CC(C)(c1c[nH]c2ccccc12)c1c[nH]c2ccccc12 [BIM-4]
LC50 [1, 4]: 1810 µM

Clc1ccc2c(C(c3ccccc3Br)c3c[nH]c4cc(Cl)ccc34)c[nH]c2c1 [BIM-34]
lethality [2]: 100% | LC50 [1, 4]: 352 µM

From US20240182413A1, “INSECTICIDAL COMPOUNDS” (Pluton Biosciences, Inc., priority 2022, published 2024)
